The target in the assay is T1, Human CaV2.2 channels (Homo sapiens, UniProt Q00975).
T1 construct: expressed in transfected cells; also stably expressing Kir2.3)
The assay can be described thus: Fluorescence assay for CaV2.2 channels using potassium depolarization to induce channel opening (FLIPR, Fluo 4). Format: cell-based. The conditions noted are these: 30 mM KCl assay buffer (inactivated channel state), HEK293 cells; for Activity Category: %-Inhib (CaV2.2) @3 μM @30 mM KCl: 3 μM test compound; for inhibition at 3 µM: HEK293, 3 μM test compound, read-out: Activity Category: %-Inhib (CaV2.2) @3 μM @30 mM KCl. From the text: In the process, the Ca^2+ influx is quantified in the FLIPR assay with the aid of a Ca^2+-sensitive dye (type Fluo-4, Molecular Probes Europe BV, Leiden, the Netherlands) in a fluorescent imaging plate reader (FLIPR 3, Molecular Devices, Sunnyvale, USA), as described hereinafter.
[drawing 69] 2. Assay Descriptions and Biological Data: 2.1 Fluorescence Assay for CaV2.2 Channels Using Potassium Depolarization to Induce Channel Opening
Human CaV2.2 channels were stably expressed in HEK293 cells together with alpha2-delta and beta subunits of voltage gated calcium channels. In addition, an inwardly rectifying potassium channel (Kir2.3) was stably expressed in these cells to augment control of the cell membrane potential by the concentration of extracellular potassium ions. Raise of the extracellular potassium concentration leads to depolarization of the membrane potential and thus regulates the voltage dependent state of CaV2.2 channels. For preparation, cells were seeded in black poly-D-lysine coated 96-well plates (Becton Dickinson, Biocoat 4640) in 100 μL medium [500 mL DMEM/F-12 plus Glutamax (Invitrogen 31331-093) plus 5.5 mL MEM NEAA 100× (Invitrogen 11140-035) plus 50 mL FBS decomplemented (Invitrogen 10270-106) plus 200 μg/mL Geneticin (Invitrogen 10131-027) plus 50 μg/mL Hygromycin B (Invitrogen 10687-010) plus 2 μg/mL Blasticidin (anti-b15b Invivo-Gen) plus 0.2 μg/mL Puromycin (A 11138-03)] at a cell density of 30.000 cells per well. Plates were incubated at 37° C. (5% CO2) for 20 to 23 h. On the day of experiment medium was discarded and cells were loaded with Fluo 4 by addition of 100 μL of basic assay buffer (10 mM HEPES, 1 mM KCl, 149 mM NaCl, 0.8 mM CaCl2, 1.7 mM MgCl2, 10 mM Glucose, 0.1% BSA. pH 7.4) containing 2 μM Fluo 4 (Molecular Probes; F-14201), 0.01% pluronic acid (Molecular Probes; P-6866) and 2.5 mM probenecid (Molecular Probes; P36400). Cells were incubated in the dark at 25° C. for 60 min. Then dye containing buffer was discarded and 100 μL basic (1 mM KCl) or alternative (30 mM KCl) assay buffer was added. The alternative assay buffer contained altered concentrations of KCl (30 mM) and NaCl (120 mM) and was used in order to promote the inactivated channel state. After that 25 μL of basic or alternative assay buffer with or without test compound were added and cells were incubated again in the dark at 25° C. for 15 min. Fluorescence intensity was measured on a FLIPR 3 instrument (Molecular Devices Corp., Sunnyvale, Calif.) with excitation at 480 nm and emission at 535 nm. After continuously reading fluorescence for 30 sec, 50 μL of basic assay buffer containing 210 mM KCl(NaCl omitted) were added for depolarization. Peak fluorescent signal intensity was determined and the amplitude of the peak signal, normalized to base line, was used to measure channel inhibition by test compounds.

The structures appear in SMILES notation.

T1 sequence (Q00975 whole entry): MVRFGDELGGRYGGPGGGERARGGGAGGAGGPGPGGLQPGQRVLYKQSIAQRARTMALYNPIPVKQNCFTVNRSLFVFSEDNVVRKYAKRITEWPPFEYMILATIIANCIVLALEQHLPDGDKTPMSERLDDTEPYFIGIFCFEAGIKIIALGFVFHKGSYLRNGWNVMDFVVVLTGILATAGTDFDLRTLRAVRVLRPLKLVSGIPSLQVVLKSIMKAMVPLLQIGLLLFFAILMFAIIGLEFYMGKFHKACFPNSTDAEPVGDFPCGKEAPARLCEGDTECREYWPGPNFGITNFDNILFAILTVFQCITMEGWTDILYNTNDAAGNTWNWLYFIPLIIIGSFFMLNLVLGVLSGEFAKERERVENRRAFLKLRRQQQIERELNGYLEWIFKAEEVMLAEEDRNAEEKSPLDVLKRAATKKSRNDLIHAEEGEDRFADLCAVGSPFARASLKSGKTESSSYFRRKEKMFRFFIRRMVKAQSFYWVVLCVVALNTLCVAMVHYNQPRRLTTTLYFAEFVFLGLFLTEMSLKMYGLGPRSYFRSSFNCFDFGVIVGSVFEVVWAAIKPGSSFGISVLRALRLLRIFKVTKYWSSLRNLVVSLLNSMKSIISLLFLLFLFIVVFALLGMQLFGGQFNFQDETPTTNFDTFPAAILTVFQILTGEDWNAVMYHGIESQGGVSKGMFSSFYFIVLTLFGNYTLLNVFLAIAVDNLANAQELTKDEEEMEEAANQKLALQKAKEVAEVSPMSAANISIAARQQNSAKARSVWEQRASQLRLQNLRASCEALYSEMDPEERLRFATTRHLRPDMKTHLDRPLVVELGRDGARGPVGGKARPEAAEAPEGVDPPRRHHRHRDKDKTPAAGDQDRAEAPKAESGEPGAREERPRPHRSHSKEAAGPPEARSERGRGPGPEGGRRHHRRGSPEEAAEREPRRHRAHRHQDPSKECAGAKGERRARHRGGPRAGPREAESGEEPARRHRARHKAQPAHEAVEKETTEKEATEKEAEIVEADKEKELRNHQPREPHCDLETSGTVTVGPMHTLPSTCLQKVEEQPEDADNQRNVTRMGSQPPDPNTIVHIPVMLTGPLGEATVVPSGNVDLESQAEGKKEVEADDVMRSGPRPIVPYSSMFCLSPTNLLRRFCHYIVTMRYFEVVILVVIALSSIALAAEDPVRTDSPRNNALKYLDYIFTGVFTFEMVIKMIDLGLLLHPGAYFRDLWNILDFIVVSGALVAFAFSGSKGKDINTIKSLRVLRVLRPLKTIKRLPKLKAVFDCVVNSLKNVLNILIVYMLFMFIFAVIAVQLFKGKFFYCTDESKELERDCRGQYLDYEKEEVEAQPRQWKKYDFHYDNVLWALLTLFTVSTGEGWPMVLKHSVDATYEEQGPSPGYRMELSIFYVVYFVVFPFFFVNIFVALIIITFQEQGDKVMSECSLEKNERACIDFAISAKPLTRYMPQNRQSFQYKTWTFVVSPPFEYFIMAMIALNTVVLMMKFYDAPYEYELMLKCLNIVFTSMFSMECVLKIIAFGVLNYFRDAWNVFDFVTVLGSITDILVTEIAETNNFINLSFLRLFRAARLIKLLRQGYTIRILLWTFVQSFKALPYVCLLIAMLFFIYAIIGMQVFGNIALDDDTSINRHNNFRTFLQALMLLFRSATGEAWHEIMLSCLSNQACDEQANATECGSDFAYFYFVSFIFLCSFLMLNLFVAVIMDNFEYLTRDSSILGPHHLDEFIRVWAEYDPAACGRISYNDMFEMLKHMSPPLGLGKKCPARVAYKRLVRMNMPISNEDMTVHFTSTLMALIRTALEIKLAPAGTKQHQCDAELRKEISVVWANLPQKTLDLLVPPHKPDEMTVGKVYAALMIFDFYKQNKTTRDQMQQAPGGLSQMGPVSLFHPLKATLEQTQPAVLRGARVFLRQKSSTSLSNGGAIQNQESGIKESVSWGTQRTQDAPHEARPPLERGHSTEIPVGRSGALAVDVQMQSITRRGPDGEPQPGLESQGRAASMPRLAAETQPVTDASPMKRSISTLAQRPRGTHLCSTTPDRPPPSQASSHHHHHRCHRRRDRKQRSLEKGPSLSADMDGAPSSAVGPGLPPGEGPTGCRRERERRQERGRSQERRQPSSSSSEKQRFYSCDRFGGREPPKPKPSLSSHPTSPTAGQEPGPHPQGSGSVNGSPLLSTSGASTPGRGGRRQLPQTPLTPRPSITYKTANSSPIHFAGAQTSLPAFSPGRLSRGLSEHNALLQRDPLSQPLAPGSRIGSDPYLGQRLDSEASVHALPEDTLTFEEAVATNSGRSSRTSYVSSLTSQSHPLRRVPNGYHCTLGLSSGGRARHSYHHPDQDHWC

As for `CC1(S(=O)(=O)c2cccc(C(F)(F)F)c2)CCOC(c2cc(S(C)(=O)=O)n[nH]2)C1` (stereo not drawn) [Example 37 cis-EN2, 5-Methylsulfonyl-3-[4-methyl-4-[[3-(trifluoromethyl)phenyl]sulfonyl]-tetrahydro-pyran-2-yl]-1H-pyrazole], the “Activity Category: %-Inhib (CaV2.2) @3 μM @30 mM KCl” value (“Activity Category: %-Inhib” for short) (listed as 37 cis-EN2) is on record as “B (%-Inhibition >75% up to ≤95%)”. Take `CC(C)(C#N)c1cc(C2CC(C)(S(=O)(=O)c3cccc(C(F)(F)F)n3)CCO2)[nH]n1` (stereo not drawn) [Example 38 cis-EN1, 2-Methyl-2-[5-[4-methyl-4-[[6-(trifluoromethyl)-pyridin-2-yl]sulfonyl]-tetrahydro-pyran-2-yl]-1H-pyrazol-3-yl]-propionitrile]: the “Activity Category: %-Inhib” value (listed as 38 cis-EN1) is “C (%-Inhibition >40% up to ≤75%)”.

With `CC(C)(C#N)c1cc(C2CC(C)(S(=O)(=O)c3cccc(C(F)(F)F)n3)CCO2)[nH]n1` (stereo not drawn) [Example 38 cis-EN2, 2-Methyl-2-[5-[4-methyl-4-[[6-(trifluoromethyl)-pyridin-2-yl]sulfonyl]-tetrahydro-pyran-2-yl]-1H-pyrazol-3-yl]-propionitrile], the “Activity Category: %-Inhib” value (listed as 38 cis-EN2) is “B (%-Inhibition >75% up to ≤95%)”. As for `CC1(S(=O)(=O)c2cccc(C(F)(F)F)c2)CCOC(c2cc(S(=O)(=O)C(F)F)n[nH]2)C1` (stereo not drawn) [[cis-EN1] Example 1, 3-(Difluoro-methylsulfonyl)-5-[4-methyl-4-[[3-(trifluoromethyl)phenyl]sulfonyl]-tetrahydro-pyran-2-yl]-1H-pyrazole], the inhibition at 3 µM is 75 to 95%. Same read-out and setting: the figure for `CC1(S(=O)(=O)c2cccc(C(F)(F)F)c2)CCOC(c2cc(C(F)F)[nH]n2)C1` (stereo not drawn) [[cis-EN1] Example 12, 5-(Difluoro-methyl)-3-[4-methyl-4-[[3-(trifluoromethyl)phenyl]sulfonyl]-tetrahydro-pyran-2-yl]-1H-pyrazole] is 75 to 95%. On to `CC1(S(=O)(=O)c2cccc(C(F)(F)F)c2)CCOC(c2cc(C(F)F)[nH]n2)C1` (stereo not drawn) [[cis-EN2] Example 12] [5-(Difluoro-methyl)-3-[4-methyl-4-[[3-(trifluoromethyl)phenyl]sulfonyl]-tetrahydro-pyran-2-yl]-1H-pyrazole], for which the “Activity Category: %-Inhib” value was “A (%-Inhibition >95%)”.

These data come from patent publication US10106530B2, “Pyrazolyl substituted tetrahydropyranylsulfones” (GRÜNENTHAL GMBH, priority 2015, dated 2018).
